{"source": "a melting point compilation (Tetko et al.; mined from patent text by program, amines drawn as free bases though some values may be those of a salt)", "data": [{"units": {"melting point": "°C"}, "values": [{"smiles": "COC1(c2ccccc2)OC=C(c2ccc(CCC(=O)O)cc2)C1=O", "note": "(stereo not given)", "melting point": "117 to 120"}, {"smiles": "COC(=O)Cc1c(C)n(Cc2ccc(Cl)cc2)c2ccc(OCc3ccc4ccccc4n3)cc12", "melting point": "132 to 134"}, {"smiles": "Cc1cccc(C)c1NC(=O)Cn1ccnc1", "melting point": "160 to 162"}, {"smiles": "Cc1cc(C2C(=O)Oc3c2cc(C(C)(C)C)cc3C(C)(C)C)cc(C)c1O", "note": "(stereo not given)", "melting point": "225 to 228"}, {"smiles": "O=C(CN1CC(O)CC1=O)Oc1ccc(Cl)c(Cl)c1Cl", "note": "(stereo not given)", "melting point": "84 to 86"}, {"smiles": "CCOC(=O)C=CC(C)=CC=O", "melting point": "48 to 49"}, {"smiles": "COc1cccc2c(OCCN3CCOCC3)c(-c3ccccc3)c(=O)oc12", "melting point": "90 to 91"}, {"smiles": "O=C1C(=CO)C(c2ccccc2[N+](=O)[O-])=NN1c1ccc(Cl)cc1", "melting point": "155 to 157"}, {"smiles": "CC(C)(O)c1cnn2c(-c3ccc(F)c(-c4ccc(F)cc4C#N)c3)cnc2n1", "melting point": 215}, {"smiles": "N#Cc1c2c(nn1-c1ccc(Cl)cc1F)CCCC2", "melting point": "83 to 84"}, {"smiles": "COc1cc(Nc2c(C#N)cnc3cc(OCc4cccs4)c(OC)cc23)c(Cl)cc1Cl", "melting point": "194 to 196"}, {"smiles": "Cc1cccc(C(O)CSC(=S)Nc2ccc(Cl)cn2)c1", "note": "(stereo not given)", "melting point": 122}, {"smiles": "CC(NC(=O)c1cccnc1Oc1cccnc1)c1ccc(Cl)s1", "note": "(single isomer, unassigned; (+))", "melting point": "83 to 85"}, {"smiles": "CC1(O)CC(=O)OC(c2ccc(-c3ccccc3)cc2)C1", "note": "(stereo not given)", "melting point": "151 to 153"}, {"smiles": "CCCCC12CCC3c4ccc(OC)cc4CCC3C1CCC2O", "note": "(stereo not given)", "melting point": "123 to 125"}, {"smiles": "COc1ccc(C(=O)O)c(O)c1O", "melting point": 234}, {"smiles": "Cc1cc(-c2cc(C(F)F)n3ncc(C(=O)Nc4cccc(S(=O)(=O)N5CCCC5)c4)c3n2)ccc1C(F)(F)F", "melting point": 226}, {"smiles": "O=C(NCCCC[C@H](Nc1nc2ccc(Cl)cc2cc1C(=O)O)C(=O)O)OCc1ccccc1", "melting point": "152 to 154"}, {"smiles": "CC1(C)C=Cc2c(c3ccccc3n(Cc3ccccc3)c2=O)O1", "melting point": "91 to 92"}, {"smiles": "CN(C)c1ccc(CCc2nc3sc4c(n3c2CO)CCCCC4)cc1", "melting point": "168 to 170"}, {"smiles": "O=C(N[C@@H](Cc1ccccc1)C(=O)CSCc1ccco1)OCc1ccccc1", "melting point": 64}, {"smiles": "CCOc1ccc(NC(=O)CC(Cc2cccc3ccccc23)C(=O)O)cc1", "note": "(stereo not given)", "melting point": "131 to 135"}, {"smiles": "Cn1ccnc1Sc1cccc(-c2nc(=O)c3ccccc3s2)n1", "melting point": 172}, {"smiles": "COc1ccc(-c2n[nH]c3ccsc23)cc1", "melting point": "143 to 144"}, {"smiles": "C[C@@H](OC(=O)c1cc([N+](=O)[O-])cc([N+](=O)[O-])c1)[C@@]1(c2ccc(F)cc2F)CO1", "melting point": "104 to 107"}, {"smiles": "COC(=O)/C=C/c1cc(C)cc(NC(C)=O)n1", "melting point": 139}, {"smiles": "N#CN1CCC(c2nn(-c3ccc(F)cc3)c3ccccc23)CC1", "melting point": "108 to 110"}, {"smiles": "COc1c2ccccc2nc2c1c(C)nn2-c1ccccn1", "melting point": "44 to 47"}, {"smiles": "COc1ccc(Cl)c(OC)c1C(=O)O", "melting point": "132 to 133"}, {"smiles": "O=C(O)C(=O)c1ccc(OCCOc2cccc(F)c2)cc1", "melting point": "108 to 109"}, {"smiles": "CCOC(=O)CC(C)(C)CC(=O)C1CC2=C(CC(C)(C)CC2)N(C2CCCCC2)C1", "note": "(stereo not given)", "melting point": "44 to 46"}, {"smiles": "O=C(CC(O)C(F)(F)F)c1cc(Cl)cc(Cl)c1", "note": "(stereo not given)", "melting point": "165 to 166"}, {"smiles": "CCOC(=O)C1=Cc2cc(I)ccc2NC1C(F)(F)F", "note": "(stereo not given)", "melting point": "137 to 138"}, {"smiles": "COC1=C(OC)C(=Nc2ccccc2)NC1=O", "melting point": "141 to 143"}, {"smiles": "COC(=O)C(C)c1cc(=O)n(Cc2ccccc2)c2ccccc12", "note": "(stereo not given)", "melting point": "90 to 92.5"}, {"smiles": "O=C(Nc1ccc2c(c1)C(F)(F)C(F)(F)O2)N1CC(c2ccccc2)=C(c2ccc(OC(F)F)cc2)N1", "melting point": "155 to 159"}, {"smiles": "CN(C)CCCOc1ccc(-c2nnc(CSCCOc3ccccc3)o2)cc1", "melting point": 70}, {"smiles": "CCn1c(=O)ccc2cnc(Nc3cccc(F)c3)nc21", "melting point": "210 to 212"}, {"smiles": "CCOCc1nc2c(N)nc(C)c(C)c2n1CCN", "melting point": "163 to 166"}, {"smiles": "CC(C)(C)OC(=O)N1CCC(c2cc(F)c3oc(-c4ccc(S(C)(=O)=O)cc4F)nc3c2)CC1", "melting point": "188 to 192"}, {"smiles": "CC(C)=CCOc1ccc(C(=O)C=Cc2cccs2)c(O)c1", "melting point": "100 to 102"}, {"smiles": "CCOCCn1c(NC2CCN(C(=O)c3ccccc3N)C(Cc3ccccc3)C2)nc2ccccc21", "note": "(stereo not given)", "melting point": 197}, {"smiles": "CC(=O)OCCc1cc2c(s1)SCCc1cc(=O)n(-c3ccc(Cl)cc3)nc1-2", "melting point": "115 to 117"}, {"smiles": "O=C(C=C1CCCCC1)C1Cc2c([nH]c3ccccc23)C(c2ccc3c(c2)OCO3)N1", "note": "(stereo not given)", "melting point": "116 to 118"}, {"smiles": "CC(C)(C)OC(=O)NC1CCCOCC=CC2CC2(C(=O)NS(=O)(=O)C2CC2)NC(=O)C2CC(OC(=O)NCC3CCCCC3)CN2C1=O", "note": "(stereo not given)", "melting point": "142 to 144"}, {"smiles": "CCc1nn(-c2ccccn2)c2[nH]c3cc(F)c(F)cc3c(=O)c12", "melting point": "247 to 248"}, {"smiles": "CC(C)(C)OC(=O)/C=C/c1ccnc(-c2nc(=O)c3ccccc3s2)c1", "melting point": "196 to 197"}, {"smiles": "O=Cc1coc2c(c1=O)CCc1ccccc1-2", "melting point": "153 to 156"}, {"smiles": "CC1(C)OCc2cc(C(O)c3c[nH]cn3)ccc2O1", "note": "(stereo not given)", "melting point": 96}, {"smiles": "CC(C)c1cc(Oc2ccc(Cl)c(Cl)c2)nc(C(C)C)c1N=CN(C)C", "melting point": "102 to 103"}, {"smiles": "Cc1cc(Br)cnc1CCCCNC1=NS(=O)(=O)c2cc(-c3ccccn3)ccc21", "melting point": "233 to 234"}, {"smiles": "O=C(C1CCN(c2ccncc2)CC1)N1CCC(Oc2ccc(Br)cc2)CC1", "melting point": "127 to 130"}, {"smiles": "CSC1C(=O)Nc2ccc(Oc3cc(F)c(C(F)(F)F)c(Cl)c3)cc21", "note": "(stereo not given)", "melting point": "137 to 142"}, {"smiles": "CC(C)c1cc2ncnn2nc1OCCOCCN1CCN(C(c2ccccc2)c2ccccc2)CC1", "melting point": "119 to 120"}, {"smiles": "COc1ccc(-c2cccc(-c3nc(=O)c4ccccc4s3)n2)cc1", "melting point": "200 to 201"}, {"smiles": "CCCCCCCCCCC#Cc1csc(CC(N)CO)c1", "note": "(stereo not given)", "melting point": "85 to 135"}, {"smiles": "CC(=O)Oc1ccc(NCc2c(F)c(F)c(C(F)(F)F)c(F)c2F)cc1C(=O)O", "melting point": "185 to 187"}, {"smiles": "CC1(C)CCC(C)(C)c2c(CO)cc(-c3ccccc3)cc21", "melting point": "80 to 82"}, {"smiles": "CN(C(=O)c1cccc(S(=O)(=O)N(C)c2ccc(Br)cc2)c1)c1ccc(Br)cc1F", "melting point": "136 to 137"}, {"smiles": "COc1ccc2c(c1)c(CC(=O)O)c(C)n2CC1CCCCC1", "melting point": "173 to 175"}, {"smiles": "COc1nc(C)nc(NC(=O)NS(=O)(=O)c2cccc3c2OS(=O)(=O)C(C)=C3)n1", "melting point": "203 to 205"}, {"smiles": "CCOC(=O)c1c(N[C@H]2CC[C@@H](c3ccccc3)CC2)ccnc1C", "melting point": 191}, {"smiles": "Cc1sc(N)nc1-c1ccc(CCN2CCN(c3cccc(C(F)(F)F)c3)CC2)cc1", "melting point": "110 to 115"}, {"smiles": "CCCN(CCC)Cc1cnc(-c2ncn3c2[C@@H]2CCN2C(=O)c2sccc2-3)o1", "melting point": "133 to 135"}, {"smiles": "Cn1cc(-c2nn(-c3cccc(C(F)(F)F)c3)ccc2=O)c(-c2ccccc2)n1", "melting point": "181 to 183"}, {"smiles": "O=c1[nH]c2c(cnn2-c2ccccc2)c2ccccc12", "melting point": 280}, {"smiles": "Cc1cc(NC(=O)OC(C)(C)C)c(C)c(C)c1O", "melting point": "158 to 161"}, {"smiles": "CC(C)c1nccn1S(=O)(=O)c1c[nH]cn1", "melting point": "118 to 120"}, {"smiles": "CCC(CC)Oc1cc(C)nc2c1COCN2c1c(C)cc(Br)cc1C", "melting point": "206 to 209"}, {"smiles": "CC1(C(=O)c2c[nH]c3ncc(-c4ccc(N5CCCCC5)cc4)nc23)CCCCC1", "melting point": "234 to 236"}, {"smiles": "CCCCc1oc2ccccc2c1Cc1cc(I)c(OCCN(CC)CC)c(I)c1", "melting point": "80 to 81"}, {"smiles": "O=Cc1cc(O)cc2cc(-c3ccc(O)cc3)oc12", "melting point": "261 to 263"}, {"smiles": "Nc1ccccc1C(=O)N1CCCc2ccccc21", "melting point": 102}, {"smiles": "Cn1c(COc2ccc(CC3SC(=O)NC3=O)cc2)nc2ccc(Oc3ccc4cccc(NC(=O)NS(=O)(=O)c5ccccc5)c4c3)cc21", "note": "(stereo not given)", "melting point": "199 to 205"}, {"smiles": "CC(C)(C)c1ccc2oc(C(=O)COc3ccc(C(=O)O)cc3)cc2c1", "melting point": "210 to 211"}, {"smiles": "N#Cc1cccc(C2=Nc3ccc(C4CC4)cc3NC(=O)C2)c1", "melting point": "204 to 209"}, {"smiles": "Oc1nsc(SCc2ccc(Cl)cc2)n1", "melting point": 138}, {"smiles": "C[Si](C)(C)Sc1ncn([Si](C)(C)C)n1", "melting point": "90 to 94"}, {"smiles": "CC(C)(C)OC(=O)Nc1cc(CO)c(I)cc1[N+](=O)[O-]", "melting point": "> 250"}, {"smiles": "Cc1cc(-c2ccc(O)cc2)ccc1C=NO", "melting point": "195 to 197"}, {"smiles": "CN(C)c1cncc(C#N)c1", "melting point": 104}, {"smiles": "Cc1ccc(-c2[nH]c(=O)n(C3CCN(Cc4ccccc4C)CC3)c2C)cc1", "melting point": 262}, {"smiles": "COc1cn(-c2cc(N3CCCC3=O)ccc2F)nc(-c2ccnn2-c2ccccc2)c1=O", "melting point": "171 to 174"}, {"smiles": "CS(=O)(=O)c1cc(F)cc(Cc2cc3cccc(-c4cccc(C(=O)NCC(N)=O)c4)c3s2)c1", "melting point": "160 to 161"}, {"smiles": "CC1SC(=S)N(C)N=C1c1ncc(Cl)cc1F", "note": "(stereo not given)", "melting point": "107 to 112"}, {"smiles": "COc1ccc(C(=O)N(C(=O)c2ccc(OC)cc2)c2nc3ccc(N(C)C)cc3c(NCc3ccccc3)c2C#N)cc1", "melting point": 156}, {"smiles": "CC(Cl)Cn1cc(-c2ccccc2)c2ccccc2c1=O", "note": "(stereo not given)", "melting point": 141}, {"smiles": "CCOC(=O)Oc1ccc(N)c(C(=O)O)c1", "melting point": "157 to 158"}, {"smiles": "CC(C)(C)C(=O)C(Oc1cccc(Cl)n1)n1cncn1", "note": "(stereo not given)", "melting point": "103 to 105"}, {"smiles": "C[C@@H](n1cnc2cc(-c3ccc([N+](=O)[O-])cc3)sc2c1=O)[C@](O)(Cn1cncn1)c1ccc(F)cc1F", "melting point": "272 to 273"}, {"smiles": "COc1cc(C(=O)Nc2c(Cl)cncc2Cl)ccc1OC(F)F", "melting point": 170}, {"smiles": "CN1CCC(O)(c2cccc(Cl)c2F)C1", "note": "(single isomer, unassigned; (+))", "melting point": "123 to 125"}, {"smiles": "CCOC(=O)C(C)(Cc1ccc(OCCN2CCCCC2)cc1)S(=O)(=O)c1ccc(OC)cc1", "note": "(stereo not given)", "melting point": 106}, {"smiles": "CONC(=O)c1cc(C(=O)OC)c2cc(Cc3ccc(F)cc3)cnc2c1O", "melting point": "186 to 188"}, {"smiles": "COc1cccc2c(Nc3ccccc3C)nc(Cl)nc12", "melting point": "218 to 220"}, {"smiles": "Cc1ccc(C)c(C(=O)NCC23CC4CC(CC(Cl)(C4)C2)C3)c1", "melting point": 155}, {"smiles": "CC(C)(C)OC(=O)c1ccc2cncn2c1", "melting point": 77}, {"smiles": "COC(=O)COc1cc(C)nc(NC(=O)NS(=O)(=O)c2cccs2)n1", "melting point": "114 to 120"}, {"smiles": "Cc1csc2nccn12", "melting point": "165 to 168"}, {"smiles": "CC(C)(C)c1cc(I)c2c(c1)C=NS(=O)(=O)O2", "melting point": "130 to 134"}]}]}
